ChEMBL document CHEMBL3526000 (Drug Metab Dispos, 2012)

Experiments:
Assay type in all cases: ADME
Details in all cases: recombinant enzyme, 1 h
[1] = target: T1, UDP-glucuronosyltransferase 1A10 (Homo sapiens, UniProt Q9HAW8); experiment: Drug metabolism assessed as recombinant human UGT1A10 assessed as O-glucuronidation at 100 uM incubated for 60 mins by LC-MS/MS analysis
T1 sequence (Q9HAW8 whole entry): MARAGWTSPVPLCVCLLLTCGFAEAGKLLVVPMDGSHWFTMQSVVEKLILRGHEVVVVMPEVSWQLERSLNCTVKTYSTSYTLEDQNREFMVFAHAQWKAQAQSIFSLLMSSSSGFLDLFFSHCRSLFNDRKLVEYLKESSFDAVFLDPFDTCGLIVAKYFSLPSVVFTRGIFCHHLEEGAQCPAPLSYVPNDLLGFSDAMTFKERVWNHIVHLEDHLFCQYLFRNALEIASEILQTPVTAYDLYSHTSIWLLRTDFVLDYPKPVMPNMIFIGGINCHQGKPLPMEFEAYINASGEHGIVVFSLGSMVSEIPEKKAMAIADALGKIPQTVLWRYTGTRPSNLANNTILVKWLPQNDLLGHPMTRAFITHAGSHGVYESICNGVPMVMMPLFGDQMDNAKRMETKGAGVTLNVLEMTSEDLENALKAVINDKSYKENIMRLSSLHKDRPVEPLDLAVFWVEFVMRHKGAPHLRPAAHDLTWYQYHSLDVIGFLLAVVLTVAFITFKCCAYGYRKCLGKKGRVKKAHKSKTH

[2] = target: T1, UDP-glucuronosyltransferase 1A10; experiment: Drug metabolism assessed as recombinant human UGT1A10 assessed as N-glucuronidation at 100 uM incubated for 60 mins by LC-MS/MS analysis
[3] = target: T2, UDP-glucuronosyltransferase 1A8 (Homo sapiens, UniProt Q9HAW9); experiment: Drug metabolism assessed as recombinant human UGT1A8 assessed as O-glucuronidation at 100 uM incubated for 60 mins by LC-MS/MS analysis
T2 sequence (Q9HAW9 whole entry): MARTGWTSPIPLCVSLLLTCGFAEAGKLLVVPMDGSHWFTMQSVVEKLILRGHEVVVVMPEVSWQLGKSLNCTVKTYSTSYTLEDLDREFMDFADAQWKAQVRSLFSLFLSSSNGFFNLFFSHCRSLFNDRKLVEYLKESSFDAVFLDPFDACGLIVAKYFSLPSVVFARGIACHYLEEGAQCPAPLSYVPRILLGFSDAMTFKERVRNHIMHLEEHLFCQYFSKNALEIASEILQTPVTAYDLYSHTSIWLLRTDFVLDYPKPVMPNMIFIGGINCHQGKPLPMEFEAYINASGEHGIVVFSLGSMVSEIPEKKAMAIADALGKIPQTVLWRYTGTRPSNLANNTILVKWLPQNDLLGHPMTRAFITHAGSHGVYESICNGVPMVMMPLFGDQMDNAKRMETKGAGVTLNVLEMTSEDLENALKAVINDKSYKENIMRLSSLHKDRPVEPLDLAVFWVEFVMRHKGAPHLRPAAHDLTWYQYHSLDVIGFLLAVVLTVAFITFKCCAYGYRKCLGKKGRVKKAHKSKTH

[4] = target: T3, UDP-glucuronosyltransferase 1A3 (Homo sapiens, UniProt P35503); experiment: Drug metabolism assessed as recombinant human UGT1A3 assessed as N-glucuronidation at 100 uM incubated for 60 mins by LC-MS/MS analysis
T3 sequence (P35503 whole entry): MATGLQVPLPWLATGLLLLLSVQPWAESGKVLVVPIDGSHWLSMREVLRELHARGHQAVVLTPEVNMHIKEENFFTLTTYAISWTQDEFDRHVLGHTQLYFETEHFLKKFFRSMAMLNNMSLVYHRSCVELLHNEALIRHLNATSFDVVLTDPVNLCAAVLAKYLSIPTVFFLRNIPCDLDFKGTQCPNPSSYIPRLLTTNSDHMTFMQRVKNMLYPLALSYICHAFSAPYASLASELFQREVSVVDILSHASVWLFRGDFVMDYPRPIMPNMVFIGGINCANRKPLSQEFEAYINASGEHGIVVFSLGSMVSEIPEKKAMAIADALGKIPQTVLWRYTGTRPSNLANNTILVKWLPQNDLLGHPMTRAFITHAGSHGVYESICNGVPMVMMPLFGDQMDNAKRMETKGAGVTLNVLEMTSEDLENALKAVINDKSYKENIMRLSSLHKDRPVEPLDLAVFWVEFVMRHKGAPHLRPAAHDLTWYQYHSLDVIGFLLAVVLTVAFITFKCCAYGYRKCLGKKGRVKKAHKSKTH

[5] = target: T4, UDP-glucuronosyltransferase 1A1 (Homo sapiens, UniProt P22309); experiment: Drug metabolism assessed as recombinant human UGT1A1 assessed as O-glucuronidation at 100 uM incubated for 60 mins by LC-MS/MS analysis
T4 sequence (P22309 whole entry): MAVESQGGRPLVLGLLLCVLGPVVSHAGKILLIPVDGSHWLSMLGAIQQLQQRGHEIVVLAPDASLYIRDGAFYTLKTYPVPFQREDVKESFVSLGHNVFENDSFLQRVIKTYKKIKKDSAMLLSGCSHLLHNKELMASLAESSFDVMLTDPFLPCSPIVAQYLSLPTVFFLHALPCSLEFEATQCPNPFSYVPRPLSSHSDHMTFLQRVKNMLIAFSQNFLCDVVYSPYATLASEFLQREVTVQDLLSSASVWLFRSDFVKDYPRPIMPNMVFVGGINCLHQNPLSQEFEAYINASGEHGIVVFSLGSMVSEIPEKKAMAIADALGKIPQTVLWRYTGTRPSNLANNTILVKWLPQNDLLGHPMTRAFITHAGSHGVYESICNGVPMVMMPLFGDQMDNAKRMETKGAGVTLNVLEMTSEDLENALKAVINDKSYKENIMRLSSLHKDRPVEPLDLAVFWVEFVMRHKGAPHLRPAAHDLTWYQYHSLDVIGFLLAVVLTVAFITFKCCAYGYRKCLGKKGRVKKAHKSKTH

[6] = target: T5, UDP-glucuronosyltransferase 1A7 (Homo sapiens, UniProt Q9HAW7); experiment: Drug metabolism assessed as recombinant human UGT1A7 assessed as O-glucuronidation at 100 uM incubated for 60 mins by LC-MS/MS analysis
T5 sequence (Q9HAW7 whole entry): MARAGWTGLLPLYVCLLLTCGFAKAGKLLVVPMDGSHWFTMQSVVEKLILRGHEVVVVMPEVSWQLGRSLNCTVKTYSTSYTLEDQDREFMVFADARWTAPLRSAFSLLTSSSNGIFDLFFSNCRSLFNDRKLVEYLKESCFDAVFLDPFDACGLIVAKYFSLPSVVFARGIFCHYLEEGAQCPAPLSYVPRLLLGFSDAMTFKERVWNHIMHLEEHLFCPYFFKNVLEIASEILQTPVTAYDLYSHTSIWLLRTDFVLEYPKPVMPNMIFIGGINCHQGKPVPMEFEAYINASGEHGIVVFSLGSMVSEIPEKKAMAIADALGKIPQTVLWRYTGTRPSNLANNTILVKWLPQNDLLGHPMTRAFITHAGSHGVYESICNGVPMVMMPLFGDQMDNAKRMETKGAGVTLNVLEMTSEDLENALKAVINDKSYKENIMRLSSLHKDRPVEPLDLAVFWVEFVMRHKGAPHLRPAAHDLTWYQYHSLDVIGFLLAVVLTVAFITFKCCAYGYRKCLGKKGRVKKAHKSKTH

Drug metabolism [1]: metabolite_not_detected | Drug metabolism [2]: metabolite_not_detected | Drug metabolism [3]: metabolite_not_detected | Drug metabolism [4]: metabolite_not_detected | Drug metabolism [5]: metabolite_not_detected | Drug metabolism [6]: metabolite_not_detected
SMILES: O=C(CCCN1CCC(O)(c2ccc(Cl)cc2)CC1)c1ccc(F)cc1 [HALOPERIDOL]
